Reference: patent US20180305332A1, “Bispiperidinyl Derivatives as Liver X Receptor Beta Agonists, Compositions, and Their Use” (Merck Sharp & Dohme Corp., priority 2015, published 2018)

Experiments:
[1] = target: T1, GST tagged LXRbeta LBD (ligand binding domain) (Homo sapiens, UniProt P55055); assay: LanthaScreen TR-FRET Liver X Receptor Coactivator Assay, LXR beta-LBD; type: biochemical; conditions: relative to reference T0901317; for EC50: Inflection Point (potency), co-activator recruitment, read-out: LXR beta IP; for Emax: read-out: LXR beta act @ max dose (%)
T1 construct: purchased Invitrogen pv4658.pps
T1 sequence (P55055 222-460 limits assumed): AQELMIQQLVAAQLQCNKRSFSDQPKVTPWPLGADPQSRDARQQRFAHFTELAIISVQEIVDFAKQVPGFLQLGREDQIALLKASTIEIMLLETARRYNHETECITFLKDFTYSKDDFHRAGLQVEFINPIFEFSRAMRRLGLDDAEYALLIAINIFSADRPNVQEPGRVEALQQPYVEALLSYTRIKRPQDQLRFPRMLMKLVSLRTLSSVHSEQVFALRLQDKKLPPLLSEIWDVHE
How it was run: (§1)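 Compound-induced coactivator recruitment measured by TR-FRET between a terbium anti-GST antibody bound to the GST-LBD (LXRα or LXRβ, human) and a fluorescein coactivator peptide, after incubation at room temperature. Potency (inflection point) and efficacy (Emax) referenced to T0901317.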

[2] = target: T2, GST tagged LXRalpha LBD (ligand binding domain) (Homo sapiens, UniProt Q13133); assay: LanthaScreen TR-FRET Liver X Receptor Coactivator Assay, LXR alpha-LBD; type: biochemical; conditions: relative to reference T0901317; for EC50: read-out: LXR alpha IP; for Emax: read-out: LXR alpha act @ max dose (%)
T2 construct: purchased Invitrogen pv4655
T2 sequence (Q13133 209-447 limits assumed): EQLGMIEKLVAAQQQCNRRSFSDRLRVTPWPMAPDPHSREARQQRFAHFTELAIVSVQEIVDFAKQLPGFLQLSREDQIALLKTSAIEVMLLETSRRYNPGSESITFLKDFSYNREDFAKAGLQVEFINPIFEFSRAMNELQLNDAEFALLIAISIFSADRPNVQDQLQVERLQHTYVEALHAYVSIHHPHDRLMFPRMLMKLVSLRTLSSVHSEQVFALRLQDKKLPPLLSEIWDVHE
How it was run: as §1

[3] = activity at max dose (efficacy)
[4] = Inflection Point (potency), co-activator recruitment

Compound | EC50 [1] [µM] | Emax [1, 3] [%] | EC50 [2, 4] [µM] | Emax [2, 3] [%] | LXR beta act @ max dose (%) [1, 3] [%] | LXR alpha act @ max dose (%) [2, 3] [%] | LXR alpha IP (nM) [2, 4]
CN(C)C(=O)c1ccc(N2CCC(C3CCN(C(=O)[C@](O)(c4ccccc4)C(F)(F)C(F)(F)F)CC3)CC2)cc1Cl (single isomer, unassigned) [Example A-20] | 0.035 | 146 | 0.625 | 0 | – | – | –
CN(C)C(=O)c1ccc(N2CCC(C3CCN(C(=O)C(O)(C(F)(F)F)C(F)(F)F)CC3)CC2)nc1Cl [Example B-15, 2-chloro-N,N-dimethyl-6-{1′-[3,3,3-trifluoro-2-hydroxy-2-(trifluoromethyl)propanoyl]-4,4′-bipiperidin-1-yl}pyridine-3-carboxamide] | 0.034 | 121 | 2.24 | 87 | – | – | –
C#CC(C)(C)C(=O)N1CCC(C2CCN(c3ccc(C(=O)N(C)C)c(Cl)c3)CC2)CC1 [Example A-11, 2-chloro-4-[1′-(2,2-dimethylbut-3-ynoyl)-4,4′-bipiperidin-1-yl]-N,N-dimethylbenzamide] | 0.512 | 125 | 2.1 | 62 | – | – | –
CN(C)C(=O)c1ccc(N2CCC(C3CCN(C(=O)C(C)(C)c4ccccc4)CC3)CC2)cc1Cl [Example A-12, 2-chloro-N,N-dimethyl-4-[1′-(2-methyl-2-phenylpropanoyl)-4,4′-bipiperidin-1-yl]benzamide] | 0.014 | 114 | 2.46 | 47 | – | – | –
CN(C)C(=O)c1ccc(N2CCC(C3CCN(C(=O)C(O)(c4ccccc4)C(F)(F)F)CC3)CC2)nc1Cl (stereo in doubt) [Example B-9, 2-chloro-N,N-dimethyl-6-{1′-[(2R)-3,3,3-trifluoro-2-hydroxy-2-phenylpropanoyl]-4,4′-bipiperidin-1-yl}pyridine-3-carboxamide] | 0.048 | 104 | 1.97 | 31 | – | – | –
Cc1ccc(F)c(C(=O)N2CCC(C3CCN(c4ccc(C(=O)N(C)C)c(Cl)c4)CC3)CC2)c1F [Example A-38, 2-chloro-4-{1′-[(2,6-difluoro-3-methylphenyl)carbonyl]-4,4′-bipiperidin-1-yl}-N,N-dimethylbenzamide] | 0.164 | 85 | 3.45 | 22 | – | – | –
CCC(F)(C(=O)N1CCC(C2CCN(c3ccc(C(=O)N(C)C)c(Cl)c3)CC2)CC1)c1ccccc1 (stereo not shown) [Example A-61, 2-chloro-4-[1′-(2-fluoro-2-phenylbutanoyl)-4,4′-bipiperidin-1-yl]-N,N-dimethylbenzamide] | 0.056 | 115 | 0.888 | 53 | – | – | –
CC(C)C(O)(C(=O)N1CCC(C2CCN(c3ccc(C(=O)N(C)C)cc3Cl)CC2)CC1)C(F)(F)F [Example D-3, 3-chloro-4-{1′-[2-hydroxy-3-methyl-2-(trifluoromethyl)butanoyl]-4,4′-bipiperidin-1-yl}-N,N-dimethylbenzamide] | 0.273 | 118 | 1.57 | 67 | – | – | –
C=C(C)C(O)(C(=O)N1CCC(C2CCN(c3ccc(C(=O)N(C)C)c(Cl)c3)CC2)CC1)C(F)(F)F (stereo not shown) [Example A-31, 2-chloro-4-{1′-[2-hydroxy-3-methyl-2-(trifluoromethyl)but-3-enoyl]-4,4′-bipiperidin-1-yl}-N,N-dimethylbenzamide] | 0.061 | 86 | 0.362 | 27 | – | – | –
CN(C)C(=O)c1ccc(N2CCC(C3CCN(C(=O)C4(c5cccc(F)c5)CCC4)CC3)CC2)cc1Cl [Example A-17, 2-chloro-4-(1′-{[1-(3-fluorophenyl)cyclobutyl]carbonyl}-4,4′-bipiperidin-1-yl)-N,N-dimethylbenzamide] | 0.204 | 100 | 2.26 | 14 | – | – | –
CN(C)C(=O)c1ccc(N2CCC(C3CCN(C(=O)C(C)(C)c4ccccc4)CC3)CC2)nc1Cl [Example B-12, 2-chloro-N,N-dimethyl-6-[1′-(2-methyl-2-phenylpropanoyl)-4,4′-bipiperidin-1-yl]pyridine-3-carboxamide] | 0.065 | 140 | 0.684 | 69 | – | – | –
CN(C)C(=O)c1ccc(N2CCC(C3CCN(C(=O)C(O)(C(C)(C)C)C(F)(F)F)CC3)CC2)cc1Cl (racemic) [Example A-4, 2-Chloro-4-(1′-(2-hydroxy-3,3-dimethyl-2-(trifluoromethyl)butanoyl)-[4,4′-bipiperidin]-1-yl)-N,N-dimethylbenzamide] | 0.029 | 104 | 0.735 | 65 | – | – | –
CN(C)C(=O)c1ccc(N2CCC(C3CCN(C(=O)C(O)(c4ccccc4)C(F)(F)F)CC3)CC2)cc1Cl (stereo not shown) [Example A-36, 2-chloro-N,N-dimethyl-4-[1′-(3,3,3-trifluoro-2-hydroxy-2-phenylpropanoyl)-4,4′-bipiperidin-1-yl]benzamide] | 0.108 | 113 | 1.8 | 27 | – | – | –
CC(C)C(O)(C(=O)N1CCC(C2CCN(c3ccc(C(=O)N(C)C)c(Cl)c3)CC2)CC1)C(C)C [Example A-109, 2-chloro-4-{1′-[2-hydroxy-3-methyl-2-(1-methylethyl)butanoyl]-4,4′-bipiperidin-1-yl}-N,N-dimethylbenzamide] | 0.061 | 98 | 54.2 | 22 | – | – | –
CN(C)C(=O)c1ccc(N2CCC(C3CCN(C(=O)C(O)(c4ccccc4)C(F)(F)C(F)(F)C(F)(F)F)CC3)CC2)cc1Cl (stereo not shown) [Example A-55, 2-chloro-4-[1′-(3,3,4,4,5,5,5-heptafluoro-2-hydroxy-2-phenylpentanoyl)-4,4′-bipiperidin-1-yl]-N,N-dimethylbenzamide] | 0.408 | – | 1.34 | – | 93 | 25 | –
COc1cccc(C(O)(C(=O)N2CCC(C3CCN(c4ccc(C(=O)N(C)C)c(Cl)c4)CC3)CC2)C(F)(F)C(F)(F)F)c1 (stereo not shown) [Example A-81, 2-chloro-N,N-dimethyl-4-{1′-[3,3,4,4,4-pentafluoro-2-hydroxy-2-(3-methoxyphenyl)butanoyl]-4,4′-bipiperidin-1-yl}benzamide] | 0.283 | 104 | 3.67 | 25 | – | – | –

Next, values leading:

EC50 [1] [µM] | Emax [1, 3] [%] | EC50 [2, 4] [µM] | Emax [2, 3] [%] | LXR beta act @ max dose (%) [1, 3] [%] | LXR alpha act @ max dose (%) [2, 3] [%] | LXR alpha IP (nM) [2, 4] | Compound
0.414 | 68 | 1.02 | 12 | – | – | – | O=C(c1ccc(N2CCC(C3CCN(C(=O)[C@](O)(c4ccccc4)C(F)(F)F)CC3)CC2)cc1Cl)N1CC(F)C1 [Example E-45, (2R)-3-(1′-{3-chloro-4-[(3-fluoroazetidin-1-yl)carbonyl]phenyl}-4,4′-bipiperidin-1-yl)-1,1,1-trifluoro-3-oxo-2-phenylpropan-2-ol]
0.206 | 78 | 1.42 | 28 | – | – | – | CN(Cc1ccon1)C(=O)c1ccc(N2CCC(C3CCN(C(=O)[C@](O)(c4ccccc4)C(F)(F)F)CC3)CC2)cc1Cl [Example E-52, 2-chloro-N-(isoxazol-3-ylmethyl)-N-methyl-4-{1′-[(2R)-3,3,3-trifluoro-2-hydroxy-2-phenylpropanoyl]-4,4′-bipiperidin-1-yl}benzamide]
0.219 | 72 | 1.26 | 32 | – | – | – | CC(C)C(O)(C(=O)N1CCC(C2CCN(c3ccc(C(=O)N4CCOC[C@H]4C)c(Cl)c3)CC2)CC1)C(F)(F)F (stereo partly drawn) [Example E-10, 2-{[1′-(3-chloro-4-{[(3R)-3-methylmorpholin-4-yl]carbonyl}phenyl)-4,4′-bipiperidin-1-yl]carbonyl}-1,1,1-trifluoro-3-methylbutan-2-ol]
0.349 | 74 | 1.4 | 31 | – | – | – | CN(Cc1ccno1)C(=O)c1ccc(N2CCC(C3CCN(C(=O)[C@](O)(c4ccccc4)C(F)(F)F)CC3)CC2)cc1Cl [Example E-50, 2-chloro-N-(isoxazol-5-ylmethyl)-N-methyl-4-{1′-[(2R)-3,3,3-trifluoro-2-hydroxy-2-phenylpropanoyl]-4,4′-bipiperidin-1-yl}benzamide]
0.323 | 76 | 3.09 | 27 | – | – | – | O=C(c1ccc(N2CCC(C3CCN(C(=O)[C@](O)(c4ccccc4)C(F)(F)F)CC3)CC2)cc1Cl)N1CCC(O)C1 (stereo partly drawn) [Example E-24, 1-[(2-chloro-4-{1′-[(2R)-3,3,3-trifluoro-2-hydroxy-2-phenylpropanoyl]-4,4′-bipiperidin-1-yl}phenyl)carbonyl]pyrrolidin-3-ol]
0.334 | 71 | – | 10 | – | – | NO IP | Cc1nnc(CN(C)C(=O)c2ccc(N3CCC(C4CCN(C(=O)[C@](O)(c5ccccc5)C(F)(F)F)CC4)CC3)cc2Cl)o1 [Example E-47, 2-chloro-N-methyl-N-[(5-methyl-1,3,4-oxadiazol-2-yl)methyl]-4-{1′-[(2R)-3,3,3-trifluoro-2-hydroxy-2-phenylpropanoyl]-4,4′-bipiperidin-1-yl}benzamide]
